Measured values: patent US20230192712A1, “MODULATORS OF THE INTEGRATED STRESS PATHWAY” (Calico Life Sciences LLC, priority 2017, published 2023)

Tested on: HEK293T cells carrying the ATF4 luciferase reporter
Test: ATF4-Luc assay (in vitro model of VWMD)
Assay type: cell-based
Details: Homo sapiens, HEK-293T; HEK293T ATF4 5'-UTR firefly luciferase reporter cells, 1 μg/mL tunicamycin, 7 hours, One Glo luminescence
Procedure: In order to test exemplary compounds of the invention in a cellular context, a stable VWMD cell line was first constructed. The ATF4 reporter was prepared by fusing the human full-length ATF4 5′-UTR (NCBI Accession No. BC022088.2) in front of the firefly luciferase (FLuc) coding sequence lacking the initiator methionine as described in Sidrauski et al (eLife 2013). The construct was used to produce recombinant retroviruses using standard methods and the resulting viral supernatant was used to transduce HEK293T cells, which were then subsequently selected with puromycin to generate a stable cell line.
HEK293T cells carrying the ATF4 luciferase reporter were plated on polylysine coated 384-well plates (Greiner Bio-one) at 30,000 cells per well. Cells were treated the next day with 1 μg/mL tunicamycin and 200 nM of a compound of Formula (I) or Formula (II) for 7 hours. Luminescence was measured using One Glo (Promega) as specified by the manufacturer. Cells were maintained in DMEM with L-glutamine supplemented with 10% heat-inactivated FBS (Gibco) and Antibiotic-Antimycotic solution (Gibco).
Table 2 below summarizes the EC50 data obtained using the ATF4-Luc assay for exemplary compounds of the invention.

SMILES	EC50
O=C(COc1ccc(Cl)c(F)c1)NC12CCC(C(=O)N3CCN(c4ccc(Cl)cc4)CC3)(CC1)CC2 [Compound 107, 2-(4-chloro-3-fluorophenoxy)-N-{4-[4-(4-chlorophenyl)piperazine-1-carbonyl]bicyclo[2.2.2]octan-1-yl}acetamide]	0.05 to 0.25 µM
O=C(COc1ccc(Cl)c(F)c1)NC12CCC(C(=O)N3CCC(c4ccc(Cl)cc4)C3)(CC1)CC2 (stereo not shown) [Compound 104, 2-(4-chloro-3-fluorophenoxy)-N-{4-[3-(4-chlorophenyl)pyrrolidine-1-carbonyl]bicyclo[2.2.2]octan-1-yl}acetamide]	> 2 µM
O=C(COc1ccc(Cl)c(F)c1)NC12CCC(C(=O)N3CC(O)(c4ccc(Cl)cc4)C3)(CC1)[C@H](O)C2 [Compound 109, 2-(4-chloro-3-fluorophenoxy)-N-{(3R)-4-[3-(4-chlorophenyl)-3-hydroxyazetidine-1-carbonyl]-3-hydroxybicyclo[2.2.2]octan-1-yl}acetamide]	0.05 to 0.25 µM
O=C(COc1ccc(Cl)c(F)c1)NC12CCC(C(=O)N3CCC(c4ccc(Cl)cc4)C3)(CC1)CC2O (stereo not shown) [Compound 114, 2-(4-chloro-3-fluorophenoxy)-N-{4-[3-(4-chlorophenyl)pyrrolidine-1-carbonyl]-2-hydroxybicyclo[2.2.2]octan-1-yl}acetamide]	> 2 µM
O=C(COc1ccc(Cl)c(F)c1)NC12CCC(C(=O)N3CC(c4ccccc4)C3)(CC1)CC2O (stereo not shown) [Compound 113, 2-(4-chloro-3-fluorophenoxy)-N-[2-hydroxy-4-(3-phenylazetidine-1-carbonyl)bicyclo[2.2.2]octan-1-yl]acetamide]	0.25 to 1 µM
O=C(COc1ccc(Cl)c(F)c1)NC12CCC(C(=O)N3CCC(c4ccc(Cl)cc4)CC3)(CC1)CC2 [Compound 102, 2-(4-chloro-3-fluorophenoxy)-N-{4-[4-(4-chlorophenyl)piperidine-1-carbonyl]bicyclo[2.2.2]octan-1-yl}acetamide]	0.05 to 0.25 µM
O=C(COc1ccc(Cl)c(F)c1)NC12CCC(C(=O)N3Cc4ccc(Cl)cc4C3)(CC1)CC2 [Compound 112, N-[4-(5-chloro-1,3-dihydro-2H-isoindole-2-carbonyl)bicyclo[2.2.2]octan-1-yl]-2-(4-chloro-3-fluorophenoxy)acetamide]	> 2 µM
O=C(COc1ccc(Cl)c(F)c1)NC12CC(C(=O)N3CC(c4ccc(Cl)cc4)C3)(C1)C2 [Compound 106, 2-(4-chloro-3-fluorophenoxy)-N-{3-[3-(4-chlorophenyl)azetidine-1-carbonyl]bicyclo[1.1.1]pentan-1-yl}acetamide]	< 0.05 µM
O=C(COc1ccc(Cl)c(F)c1)NC12CCC(C(=O)N3CC(O)(c4ccc(Cl)cc4)C3)(CC1)[C@@H](O)C2 [Compound 108, 2-(4-chloro-3-fluorophenoxy)-N-{(3S)-4-[3-(4-chlorophenyl)-3-hydroxyazetidine-1-carbonyl]-3-hydroxybicyclo[2.2.2]octan-1-yl}acetamide]	0.25 to 1 µM
O=C(COc1ccc(Cl)c(F)c1)NC12CC(C(=O)N3CC4(C3)CN(c3ccc(Cl)c(F)c3)C4)(C1)C2 [Compound 100, 2-(4-chloro-3-fluorophenoxy)-N-{3-[6-(4-chloro-3-fluorophenyl)-2,6-diazaspiro[3.3]heptane-2-carbonyl]bicyclo[1.1.1]pentan-1-yl}acetamide]	> 2 µM
O=C(COc1ccc(Cl)c(F)c1)NC12CC(C(=O)N3CCC(c4ccc(Cl)cc4)CC3)(C1)C2 [Compound 101, 2-(4-chloro-3-fluorophenoxy)-N-{3-[4-(4-chlorophenyl)piperidine-1-carbonyl]bicyclo[1.1.1]pentan-1-yl}acetamide]	0.05 to 0.25 µM
O=C(COc1ccc(Cl)c(F)c1)NC12CC(C(=O)N3Cc4ccc(Cl)cc4C3)(C1)C2 [Compound 111, N-[3-(5-chloro-1,3-dihydro-2H-isoindole-2-carbonyl)bicyclo[1.1.1]pentan-1-yl]-2-(4-chloro-3-fluorophenoxy)acetamide]	0.25 to 1 µM
O=C(COc1ccc(Cl)c(F)c1)NC12CCC(C(=O)N3CC(c4ccc(Cl)cc4)C3)(CC1)CC2 [Compound 105, 2-(4-chloro-3-fluorophenoxy)-N-{4-[3-(4-chlorophenyl)azetidine-1-carbonyl]bicyclo[2.2.2]octan-1-yl}acetamide]	< 0.05 µM
O=C(COc1ccc(Cl)c(F)c1)NC12CCC(C(=O)N3CC(c4ccc(Cl)cc4)C3)(CC1)CC2O (stereo not shown) [Compound 115, 2-(4-chloro-3-fluorophenoxy)-N-{4-[3-(4-chlorophenyl)azetidine-1-carbonyl]-2-hydroxybicyclo[2.2.2]octan-1-yl}acetamide]	< 0.05 µM
O=C(COc1ccc(Cl)c(F)c1)NC12CC(C(=O)N3CC(O)(c4ccc(Cl)cc4)C3)(C1)C2 [Compound 110, 2-(4-chloro-3-fluorophenoxy)-N-{3-[3-(4-chlorophenyl)-3-hydroxyazetidine-1-carbonyl]bicyclo[1.1.1]pentan-1-yl}acetamide]	> 2 µM
O=C(COc1ccc(Cl)c(F)c1)NC12CC(C(=O)N3CCC(c4ccc(Cl)cc4)C3)(C1)C2 (stereo not shown) [Compound 103, 2-(4-chloro-3-fluorophenoxy)-N-{3-[3-(4-chlorophenyl)pyrrolidine-1-carbonyl]bicyclo[1.1.1]pentan-1-yl}acetamide]	> 2 µM
